Reference: US20100298141A1, “SUBSTITUTED PYRIDINE N-OXIDE HERBICIDES” (E. I. DU PONT DE NEMOURS AND COMPANY, priority 2007, published 2010)

Assays:
[1] = tested on: chickweed; assay: Test C postemergence test; format: in vivo, Stellaria media; details: for Plant response rating, Chickweed: scale 0 to 100, 0 no effect, 100 complete control
How it was run: (§1)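 Postemergence sprays of formulated test chemicals on plants 2 to 18 cm tall (1- to 4-leaf stage). Greenhouse hold for 13 to 15 days, then visual rating of each species against untreated controls; dash means no test result.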

[2] = tested on: Russian thistle; assay: Test F preemergence test; format: in vivo, Salsola kali; details: scale 0 to 100
Source text: Seeds of plant species selected from bermudagrass (Cynodon dactylon), Surinam grass (Brachiaria decumbens), large crabgrass (Digitaria sanguinalis), green foxtail (Setaria viridis), goosegrass (Eleusine indica), johnsongrass (Sorghum halepense), kochia (Kochia scoparia), pitted morningglory (Ipomoea lacunosa), purple nutsedge (Cyperus rotundus), common ragweed (Ambrosia elation), mustard (Brassica nigra), guineagrass (Panicum maximum), […] (Paspalum dilatatum), barnyardgrass (Echinochloa crus-galli), southern sandbur (Cenchrus echinatus), common sowthistle (Sonchus oleraceous), prickly […] spinosa), Italian ryegrass (Lolium multiflorum), common purslane (Portulaca oleracea), broadleaf signalgrass (Brachiaria platyphylla), common groundsel (Senecio vulgaris), common chickweed (Stellaria media), Virginia dayflower (Commelina virginica), annual bluegrass (Poa annua), naked crabgrass (Digitaria nuda), […] cochinchinensis), quackgrass (Elytrigia repens), Canada horseweed (Conyza canadensis), field bindweed (Convolvulus arvensis), […] (Bidens bipinnata), common mallow (Malva sylvestris), Russian thistle (Salsola kali), and sugarcane (Saccharum officinarum) were planted and treated preemergence with test chemicals formulated in a non-phytotoxic solvent mixture which included a surfactant. At a different time, sugarcane was treated with postemergence applications of some of the test chemicals formulated in the same manner. Plants were approximately 3- to 4-leaf stage for the postemergence treatments. Treated plants and controls were maintained in a greenhouse for 14 to 21 days, after which time all species were compared to controls and visually evaluated. […] A dash (-) response means no test result.

[3] = tested on: canarygrass; assay: Test C postemergence test; format: in vivo, Phalaris minor; details: for Plant response rating, Canarygrass: scale 0 to 100, 0 no effect, 100 complete control
How it was run: as §1

[4] = tested on: windgrass; assay: Test C pre-/postemergence test; format: in vivo, Apera spica-venti; details: Postemergence; for Plant response rating, Windgrass: scale 0 to 100, 0 no effect, 100 complete control
[5] = tested on: barnyardgrass; assay: Test F preemergence test; format: in vivo, Echinochloa crus-galli; details: scale 0 to 100
How it was run: (§2)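 Visual ratings relative to controls, taken after 14 to 21 days in a greenhouse. Test chemicals, formulated in a surfactant-containing non-phytotoxic solvent mixture, were applied preemergence to sown seeds or postemergence to sugarcane plants.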

[6] = tested on: large crabgrass; assay: Test F preemergence test; format: in vivo, Digitaria sanguinalis; details: scale 0 to 100
How it was run: as §2

[7] = tested on: common sowthistle; assay: Test F preemergence test; format: in vivo, Sonchus oleraceous; details: scale 0 to 100
How it was run: as §2

[8] = tested on: common chickweed; assay: Test F preemergence test; format: in vivo, Stellaria media; details: scale 0 to 100
How it was run: as §2

[9] = tested on: winter barley; assay: Test C postemergence test; format: in vivo, Hordeum vulgare; details: for Plant response rating, Barley: scale 0 to 100, 0 no effect, 100 complete control
How it was run: as §1

[10] = tested on: Virginia dayflower; assay: Test F preemergence test; format: in vivo, Commelina virginica; details: scale 0 to 100
How it was run: as §2

[11] = tested on: downy bromegrass; assay: Test D preemergence test; format: in vivo, Bromus tectorum; details: scale 0 to 100
Source text: Seeds of plant species selected from annual bluegrass (Poa annua), blackgrass (Alopecurus myosuroides), downy bromegrass (Bromus tectorum), field violet (Viola arvensis), green foxtail (Setaria viridis), Italian ryegrass (Lolium multiflorum), littleseed canarygrass (Phalaris minor), spring wheat (Triticum aestivum), wild oat (Avena fatua), […]), winter barley (Hordeum vulgare), and winter wheat (Triticum aestivum) were planted and treated preemergence with test chemicals formulated in a non-phytotoxic solvent mixture which included a surfactant. […] A dash (-) response means no test result.

`Cc1cc[n+]([O-])c([S+]([O-])Cc2c(C(F)(F)F)nn(C)c2OC(F)F)c1` (stereo not shown) [Compound 1] was tested, and the “Plant response rating (0 to 100), Chickweed” value ([1]; 31 g ai/ha) was 50, the “Plant response rating, Chickweed” value ([1]; 62 g ai/ha) was 65 and the “Plant response rating, Chickweed” value ([1]; 125 g ai/ha) was 90. For the same compound, the “Plant response rating, Chickweed” value ([1]; 250 g ai/ha) was 90, the “Plant response rating, Russian Thistle” value ([2]; 8 g ai/ha, preemergence) was 0 and the “Plant response rating, Russian Thistle” value ([2]; Preemergence, 16 g ai/ha) was 0. For the same compound, the “Plant response rating, Russian Thistle” value ([2]; Preemergence, 31 g ai/ha) was 0, the “Plant response rating (0 to 100), Canarygrass” value ([3]; 31 g ai/ha) was 0 and the “Plant response rating, Canarygrass” value ([3]; 62 g ai/ha) was 0. The “Plant response rating, Canarygrass” value ([3]; 125 g ai/ha) was 0, the “Plant response rating, Canarygrass” value ([3]; 250 g ai/ha) was 0 and the “Plant response rating (0 to 100), Windgrass” value ([4]; 31 g ai/ha) was 0. For the same compound, the “Plant response rating (0 to 100), Windgrass” value ([4]; 62 g ai/ha) was 10, the “Plant response rating, Windgrass” value ([4]; 125 g ai/ha) was 60 and the “Plant response rating, Windgrass” value ([4]; 250 g ai/ha) was 85. The “Plant response rating, Barnyardgrass” value ([5]; 8 g ai/ha, preemergence) was 5, the “Barnyardgrass plant response rating” value ([5]; 62 g ai/ha, Preemergence) was 90 and the “Plant response rating, Barnyardgrass” value ([5]; Preemergence, 16 g ai/ha) was 60. For the same compound, the “Plant response rating, Barnyardgrass” value ([5]; Preemergence, 31 g ai/ha) was 80, the “Plant response rating, Crabgrass, Large” value ([6]; 8 g ai/ha, preemergence) was 0 and the “Crabgrass, Large plant response rating” value ([6]; 62 g ai/ha, Preemergence) was 95. For the same compound, the “Plant response rating, Crabgrass, Large” value ([6]; Preemergence, 16 g ai/ha) was 20, the “Plant response rating, Crabgrass, Large” value ([6]; Preemergence, 31 g ai/ha) was 70 and the “Plant response rating, Sowthistle” value ([7]; 8 g ai/ha, preemergence) was 0. The “Plant response rating, Sowthistle” value ([7]; 16 g ai/ha, preemergence) was 0, the “Sowthistle plant response rating” value ([7]; 62 g ai/ha, Preemergence) was 70 and the “Plant response rating, Sowthistle” value ([7]; Preemergence, 31 g ai/ha) was 30. The “Plant response rating, Chickweed” value ([8]; 8 g ai/ha, preemergence) was 40, the “Chickweed plant response rating” value ([8]; 62 g ai/ha, Preemergence) was 100 and the “Plant response rating, Chickweed” value ([8]; Preemergence, 16 g ai/ha) was 60. For the same compound, the “Plant response rating, Chickweed” value ([8]; Preemergence, 31 g ai/ha) was 98, the “Plant response rating (0 to 100), Barley” value ([9]; 31 g ai/ha) was 0 and the “Plant response rating, Barley” value ([9]; 62 g ai/ha) was 0. The “Plant response rating, Barley” value ([9]; 125 g ai/ha) was 0, the “Plant response rating, Barley” value ([9]; 250 g ai/ha) was 0 and the “Plant response rating, Dayflower” value ([10]; 8 g ai/ha, preemergence) was 0. For the same compound, the “Dayflower plant response rating” value ([10]; 62 g ai/ha, Preemergence) was 100, the “Plant response rating, Dayflower” value ([10]; Preemergence, 16 g ai/ha) was 0 and the “Plant response rating, Dayflower” value ([10]; Preemergence, 31 g ai/ha) was 80. For the same compound, the “Plant response rating, Bromegrass, Downy” value ([11]; 31 g ai/ha) was 0, the “Plant response rating, Bromegrass, Downy” value ([11]; 62 g ai/ha) was 30 and the “Plant response rating, Bromegrass, Downy” value ([11]; 125 g ai/ha) was 40. The “Plant response rating, Bromegrass, Downy” value ([11]; 250 g ai/ha) was 40.
